Experimental data from publication PMC10600239, “Selective MCL-1 inhibitor ABBV-467 is efficacious in tumor models but is associated with cardiac troponin increases in patients” (Communications Medicine, 2023).
Values joined by “and” are separate entries in the source; they are usually repeats but may differ in a detail not shown here. Identical values can stand only once.

System: OPM-2 xenografts
Assay: OPM-2 xenograft efficacy (tumor volume, body weight)
Type: in vivo, mouse
Conditions: for Body Weight (g) Day 21, individual animals / Body Weight Day 21, Mean / Body Weight Day 21, Median / Relative to initial body wt., %: mouse, in vivo, iv
Experimental: All animal studies were conducted in accordance with the guidelines approved by the Institutional Animal Care and Use Committees of AbbVie. The research protocol was approved by In Vivo Pharmacology at AbbVie prior to study initiation but was not publicly registered or disclosed. Female C.B-17 SCID-beige mice (AMO-1, OPM-2, NCI-H929, and OCI-AML2 xenografts) and female NSG mice (MV4-11-Red.Fluc systemic) were purchased from Charles River Laboratories (Wilmington, MA). Animals were housed in a light cycle-controlled room with HEPA filtration at 22 °C. Animals had nesting and climbing cage topper as the primary environmental enrichment. Animals were inoculated subcutaneously in the right flank with 5 × 10^6 (AMO-1, OPM-2, NCI-H929, and OCI-AML2) or intravenous (IV) with 5 × 10^6 (MV4-11-Red.Fluc). The inoculation volume (0.2 mL) comprised a 50:50 mixture of cells in growth media and Matrigel (BD Biosciences) for subcutaneous injections and 100% phosphate-buffered saline for IV administration. All cell lines used in this publication were authenticated using IDEXX for STR profiling as well as their IMPACT and human IMPACT panels for pathogen screening. Electronic calipers were used to measure the length and width of each tumor 2 to 3 times per week. Tumor volume was estimated by applying the following equation: volume = length × width^2/2. All groups remained blinded during measurements and dosing; only veterinary staff were aware of group identity. When tumors reached approximately 200 mm^3, mice were randomized by match and distributed into treatment and control groups. All xenograft trials were conducted using 5 to 10 mice per group, and all mice were ear tagged and monitored individually throughout the studies. Any animal with a tumor above 2000 mm^3 or 15% loss in body weight was euthanized and removed from the study. Tumor burden in the systemic MV4-11-Red.Fluc experiment was measured using an IVIS® spectrum from PerkinElmer by taking the total photon flux of the entire dorsal side of an individual mouse. Ten minutes prior to imaging, animals received intraperitoneally 0.2 mL of a 15-mg/mL solution of D-Luciferin (PerkinElmer, Catalog #122799) formulated in 100% phosphate-buffered saline. Animals were anesthetized using 3.5% isoflurane and maintained using 2%. Six days after inoculation, animals were imaged and randomized into vehicle and treatment groups at a total flux of ~1 × 10^8. A background control mouse that was tumor naive but received D-Luciferin was placed in the upper left corner of each image. The total flux from this animal was subtracted from the total flux of each animal present in the image.
For in vivo studies, maximal tumor growth inhibition (TGI) was calculated as the greatest treatment response using the following equation: Maximal TGI = (1 − mean tumor volume of the treated group/mean tumor volume of the vehicle control group) × 100. The tumor growth delay (TGD) percentage was determined as the percentage increase of the median time period for the treatment group to reach an arbitrary tumor volume of 1000 mm^3 relative to the vehicle control group. […] A power analysis was conducted using historical data to determine the number of animals required to yield significance of 0.05 at a 30% difference. There were no animals excluded. Data from experiments in vivo were analyzed using the student’s t-test for TGI values and the Mann–Whitney U test for TGD using Excel and GraphPad Prism. Fisher’s exact test was used to probe significance of differences in response frequency.

[1] = OPM-2 (DSMZ) xenograft, SCID-beige mouse, 25 mg/kg q7dx3 IV, Day 63
[2] = OPM-2 (DSMZ) xenograft, SCID-beige mouse, 25 mg/kg q7dx3 IV, Day 70
[3] = OPM-2 (DSMZ) xenograft, SCID-beige mouse, 25 mg/kg q7dx3 IV, Day 77
[4] = OPM-2 (DSMZ) xenograft, SCID-beige mouse, 25 mg/kg q7dx3 IV, Day 106
[5] = OPM-2 (DSMZ) xenograft, SCID-beige mouse, 25 mg/kg q7dx3 IV, Day 113
[6] = OPM-2 (DSMZ) xenograft, SCID-beige mouse, 25 mg/kg q7dx3 IV, Day 120
[7] = individual animals, 6.25 mg/kg q7dx3 IV, Day 37, OPM-2 (DSMZ) xenograft, SCID-beige mouse, 6.25 mg/kg

What does the source list for `Cc1c(Cl)c2c(Cl)c(C)c1-c1c(-c3ccc(F)cc3)sc3ncnc(c13)O[C@@H](C(=O)O)Cc1cc(ccc1OCc1ccnc(-c3ccc(OC[C@H]4COCCO4)cc3)n1)OC[C@@H](CN1CCN(C)CC1)O2` [Compound A-1747745]?
Body Weight Day 21, % T/C (mean) (OPM-2 (DSMZ) xenograft, SCID-beige mice, 25 mg/kg q7dx3 IV, Day 21, mean(T)/mean(C)): 105.36%; Body Weight Day 21, % T/C (median) (OPM-2 (DSMZ) xenograft, SCID-beige mice, 25 mg/kg q7dx3 IV, Day 21, median(T)/median(C)): 105.36%; Tumor Volume (mm³) Day 63 (individual animals) [1]: 4 mm³; Tumor Volume Day 63, Mean [1]: 4.00 mm³; Tumor Volume Day 63, Median [1]: 4.00 mm³; Tumor Volume (mm³) Day 70 (individual animals) [2]: 4 mm³; Tumor Volume Day 70, Mean [2]: 4.00 mm³; Tumor Volume Day 70, Median [2]: 4.00 mm³; Tumor Volume (mm³) Day 77 (individual animals) [3]: 4 mm³; Tumor Volume Day 77, Mean [3]: 4.00 mm³; Tumor Volume Day 77, Median [3]: 4.00 mm³; Tumor Volume (mm³) Day 106 (individual animals) [4]: 4 mm³; Tumor Volume Day 106, Mean [4]: 4.00 mm³; Tumor Volume Day 106, Median [4]: 4.00 mm³; Tumor Volume (mm³) Day 113 (individual animals) [5]: 4 mm³; Tumor Volume Day 113, Mean [5]: 4.00 mm³; Tumor Volume Day 113, Median [5]: 4.00 mm³; Tumor Volume (mm³) Day 120 (individual animals) [6]: 4 mm³; Tumor Volume Day 120, Mean [6]: 4.00 mm³; Tumor Volume Day 120, Median [6]: 4.00 mm³; Tumor Volume Day 37, Mean (group mean, 6.25 mg/kg q7dx3 IV, Day 37, OPM-2 (DSMZ) xenograft, SCID-beige mouse): 1067.37 mm³; Tumor Volume Day 37, Mean (group mean, 25 mg/kg q7dx3 IV, Day 37, OPM-2 (DSMZ) xenograft, SCID-beige mouse): 4.00 mm³; Tumor Volume Day 41, Mean (group mean, 25 mg/kg q7dx3 IV, Day 41, SCID-beige mice): 4.00 mm³; Tumor Volume Day 44, Mean (group mean, 25 mg/kg q7dx3 IV, Day 44, SCID-beige mice): 4.00 mm³; Tumor Volume (mm³) Day 86, Mean (group mean, 25 mg/kg q7dx3 IV, OPM-2 (DSMZ) xenograft, SCID-beige mice, Day 86): 4.00 mm³; Tumor Volume (mm³) Day 93, Mean (group mean, 25 mg/kg q7dx3 IV, OPM-2 (DSMZ) xenograft, SCID-beige mice, Day 93): 4.00 mm³; Tumor Volume (mm³) Day 101, Mean (group mean, 25 mg/kg q7dx3 IV, OPM-2 (DSMZ) xenograft, SCID-beige mice, Day 101): 4.00 mm³; Tumor Volume (mm³) Day 51, Mean (group mean, 25 mg/kg q7dx3 IV, OPM-2 (DSMZ) xenograft, SCID-beige mouse, Day 51): 4.00 mm³; Tumor Volume (mm³) Day 57, Mean (group mean, 25 mg/kg q7dx3 IV, OPM-2 (DSMZ) xenograft, SCID-beige mouse, Day 57): 4.00 mm³; Tumor Volume Day 37, Median (group median, 6.25 mg/kg q7dx3 IV, Day 37, OPM-2 (DSMZ) xenograft, SCID-beige mouse): 1120.03 mm³; Tumor Volume Day 37, Median (group median, 25 mg/kg q7dx3 IV, Day 37, OPM-2 (DSMZ) xenograft, SCID-beige mouse): 4.00 mm³; Tumor Volume Day 41, Median (group median, 25 mg/kg q7dx3 IV, Day 41, SCID-beige mice): 4.00 mm³; Tumor Volume Day 44, Median (group median, 25 mg/kg q7dx3 IV, Day 44, SCID-beige mice): 4.00 mm³; Tumor Volume (mm³) Day 86, Median (group median, 25 mg/kg q7dx3 IV, OPM-2 (DSMZ) xenograft, SCID-beige mice, Day 86): 4.00 mm³; Tumor Volume (mm³) Day 93, Median (group median, 25 mg/kg q7dx3 IV, OPM-2 (DSMZ) xenograft, SCID-beige mice, Day 93): 4.00 mm³; Tumor Volume (mm³) Day 101, Median (group median, 25 mg/kg q7dx3 IV, OPM-2 (DSMZ) xenograft, SCID-beige mice, Day 101): 4.00 mm³; Tumor Volume (mm³) Day 51, Median (group median, 25 mg/kg q7dx3 IV, OPM-2 (DSMZ) xenograft, SCID-beige mouse, Day 51): 4.00 mm³; Tumor Volume (mm³) Day 57, Median (group median, 25 mg/kg q7dx3 IV, OPM-2 (DSMZ) xenograft, SCID-beige mouse, Day 57): 4.00 mm³; Mortality Observation Day 37 [7]: GRPX and EUTV (3×); Tumor Volume (mm³) Day 37 [7]: 830 mm³ and 1099 mm³ and 1199 mm³ and 1141 mm³; Tumor Volume (mm³) Day 37 (individual animals, 25 mg/kg q7dx3 IV, Day 37, OPM-2 (DSMZ) xenograft, SCID-beige mouse): 4 mm³; Tumor Volume (mm³) Day 41 (individual animals, 25 mg/kg q7dx3 IV, Day 41, SCID-beige mice): 4 mm³; Tumor Volume (mm³) Day 44 (individual animals, 25 mg/kg q7dx3 IV, Day 44, SCID-beige mice): 4 mm³; Tumor Volume (mm³) Day 86 (individual animals, 25 mg/kg q7dx3 IV, OPM-2 (DSMZ) xenograft, SCID-beige mice, Day 86): 4 mm³; Tumor Volume (mm³) Day 93 (individual animals, 25 mg/kg q7dx3 IV, OPM-2 (DSMZ) xenograft, SCID-beige mice, Day 93): 4 mm³; Tumor Volume (mm³) Day 101 (individual animals, 25 mg/kg q7dx3 IV, OPM-2 (DSMZ) xenograft, SCID-beige mice, Day 101): 4 mm³; Tumor Volume (mm³) Day 51 (individual animals, 25 mg/kg q7dx3 IV, OPM-2 (DSMZ) xenograft, SCID-beige mouse, Day 51): 4 mm³; Tumor Volume (mm³) Day 57 (individual animals, 25 mg/kg q7dx3 IV, OPM-2 (DSMZ) xenograft, SCID-beige mouse, Day 57): 4 mm³; Body Weight (g) Day 21, individual animals (6.25 mg/kg): 21 g; Body Weight Day 21, Mean (6.25 mg/kg): 21.00 g; Body Weight Day 21, Median (6.25 mg/kg): 21.00 g; Relative to initial body wt., % (6.25 mg/kg): 0.00%; Body Weight (g) Day 21, individual animals (25 mg/kg): 22 g; Body Weight Day 21, Mean (25 mg/kg): 22.13 g; Body Weight Day 21, Median (25 mg/kg): 22.13 g; Relative to initial body wt., % (25 mg/kg): 0.00%
